The text below walks through data of PubChem BioAssay AID256 (DTP/NCI, 2004).

Several values for one entry are separate records, joined by “and”; a condition that tells them apart may be missing. Equal values may be shown once. Inconclusive results and toxic doses are left out.

This experiment has as its system CD2F1 mice, L1210 leukemia ip, survival T/C. Put plainly: NCI In Vivo Anticancer Drug Screen. Data for tumor model L1210 Leukemia (intraperitoneal) in CD2F1 (CDF1) mice. As to conditions: higher = longer survival. The method in brief: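 Each value reflects a quotient of treated over vehicle control outcomes in mice with a transplanted tumor.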
Where [1] appears, read: endpoint: mean survival time, dose: 100.0 mg/kg/injection, schedule: Q01DX001 (ip), vehicle: saline with Tween-80.
The mark [2] stands for this setting: endpoint: mean survival time, dose: 100.0 mg/kg/injection, schedule: Q01DX009 (ip), vehicle: saline with Tween-80.
Setting [3] is: endpoint: mean survival time, dose: 200.0 mg/kg/injection, schedule: Q01DX001 (ip), vehicle: saline with Tween-80.
Setting [4] is: endpoint: mean survival time, dose: 200.0 mg/kg/injection, schedule: Q01DX009 (ip), vehicle: saline with Tween-80.
Setting [5] is: endpoint: mean survival time, dose: 400.0 mg/kg/injection, schedule: Q01DX001 (ip), vehicle: saline with Tween-80.
The mark [6] stands for this setting: endpoint: mean survival time, dose: 400.0 mg/kg/injection, schedule: Q01DX009 (ip), vehicle: saline with Tween-80.
The mark [7] stands for this setting: endpoint: mean survival time, dose: 100.0 mg/kg/injection, schedule: Q01DX009 (ip), vehicle: saline.
The mark [8] stands for this setting: endpoint: mean survival time, dose: 200.0 mg/kg/injection, schedule: Q01DX009 (ip), vehicle: saline.
[9] abbreviates: endpoint: mean survival time, dose: 400.0 mg/kg/injection, schedule: Q01DX009 (ip), vehicle: saline.
Setting [10] is: endpoint: mean survival time, dose: 100.0 mg/kg/injection, schedule: Q04DX003 (ip), vehicle: saline with Tween-80.
The mark [11] stands for this setting: endpoint: mean survival time, dose: 200.0 mg/kg/injection, schedule: Q04DX003 (ip), vehicle: saline with Tween-80.
[12] abbreviates: endpoint: mean survival time, dose: 400.0 mg/kg/injection, schedule: Q04DX003 (ip), vehicle: saline with Tween-80.
Setting [13] is: endpoint: mean survival time, dose: 100.0 mg/kg/injection, schedule: Q01DX001 (ip), vehicle: saline.
[14] abbreviates: endpoint: mean survival time, dose: 100.0 mg/kg/injection, schedule: Q04DX002 (ip), vehicle: saline with Tween-80.
The mark [15] stands for this setting: endpoint: mean survival time, dose: 200.0 mg/kg/injection, schedule: Q01DX001 (ip), vehicle: saline.
Where [16] appears, read: endpoint: mean survival time, dose: 200.0 mg/kg/injection, schedule: Q04DX002 (ip), vehicle: saline with Tween-80.
[17] abbreviates: endpoint: mean survival time, dose: 400.0 mg/kg/injection, schedule: Q01DX001 (ip), vehicle: saline.
The mark [18] stands for this setting: endpoint: mean survival time, dose: 400.0 mg/kg/injection, schedule: Q04DX002 (ip), vehicle: saline with Tween-80.

Turning to `Cc1[nH]c(=S)[nH]c(=O)c1CCO`, the T/C under setting [1] was 105 % of control; the T/C under setting [2] is 101 % of control; the T/C under setting [3] was 95 % of control; the T/C under setting [4] is 103 % of control; the T/C under setting [5] was 100 % of control; the T/C under setting [6] is 101 % of control.

For `OCCCNCc1ccccc1`, the T/C is 97 % of control under setting [7], 96 % of control under setting [8] and 100 % of control under setting [9].

For the compound `CC1C([N+]2(C)CCCCC2)CS1(=O)=O` (stereo not drawn), the T/C is, setting by setting: (endpoint: mean survival time, dose: 100.0 mg/kg/injection, schedule: Q04DX002 (ip), vehicle: saline) 103 % of control; (endpoint: mean survival time, dose: 200.0 mg/kg/injection, schedule: Q04DX002 (ip), vehicle: saline) 100 % of control; (endpoint: mean survival time, dose: 400.0 mg/kg/injection, schedule: Q04DX002 (ip), vehicle: saline) 95 % of control.

On to `O=C(CCl)Nc1cccc(Cl)c1`, for which the T/C was 92 % of control under setting [2]; 97 % of control under setting [10]; 95 % of control under setting [4]; 111 % of control under setting [11]; 104 % of control under setting [12].

Consider `NC1CC(N)C(O)C(O)C1O` (stereo not drawn), for which the T/C under setting [13] was 95 % of control; the T/C under setting [14] was 103 % of control; the T/C under setting [15] was 100 % of control; the T/C under setting [16] was 103 % of control; the T/C under setting [17] was 94 % of control; the T/C under setting [18] is 95 % of control.

Take `C[N+]([O-])(CCO)Cc1ccccc1` (stereo not drawn): the T/C is, setting by setting: (endpoint: mean survival time, dose: 50.0 mg/kg/injection, schedule: Q01DX001 (ip), vehicle: carboxymethylcellulose (CMC)) 102 % of control; (endpoint: mean survival time, dose: 100.0 mg/kg/injection, schedule: Q01DX001 (ip), vehicle: carboxymethylcellulose (CMC)) 112 % of control; (endpoint: mean survival time, dose: 200.0 mg/kg/injection, schedule: Q01DX001 (ip), vehicle: carboxymethylcellulose (CMC)) 112 % of control; (endpoint: mean survival time, dose: 400.0 mg/kg/injection, schedule: Q01DX001 (ip), vehicle: carboxymethylcellulose (CMC)) 112 % of control.

Consider `Nc1nc(N)c(-c2cccc(Cl)c2)c(COc2ccc([N+](=O)[O-])cc2)n1`, for which the T/C under setting [1] was 94 % of control, the T/C under setting [3] is 92 % of control and the T/C under setting [5] was 93 % of control.

Take `O=c1[nH]c(=S)[nH]c(-c2ccccc2)c1CCO`: the T/C reads like this: under setting [10], 97 % of control; under setting [11], 101 % of control; under setting [12], 91 % of control.

Turning to `CCSCCCO`, the T/C runs as follows: (endpoint: mean survival time, dose: 75.0 mg/kg/injection, schedule: Q04DX003 (ip), vehicle: saline) 95 % of control; (endpoint: mean survival time, dose: 150.0 mg/kg/injection, schedule: Q04DX003 (ip), vehicle: saline) 97 % of control; (endpoint: mean survival time, dose: 300.0 mg/kg/injection, schedule: Q04DX003 (ip), vehicle: saline) 103 % of control.

Take `Cc1ccc(S(=O)(=O)CC(=O)O)cc1`: the T/C was 102 % of control under setting [10] and 102 % of control under setting [11].

Consider `c1cc2nc(c1)CSCCCCCCCSC2`, for which the T/C is 98 % of control under setting [2], 90 % of control under setting [4] and 93 % of control under setting [6].

Regarding `O=C(O)CCC(=O)c1ccc(Cl)c(Cl)c1`, the T/C by setting is: (endpoint: mean survival time, dose: 50.0 mg/kg/injection, schedule: Q01DX009 (ip), vehicle: saline with Tween-80) 102 % of control; under setting [2], 96 % of control; under setting [10], 98 % of control; under setting [11], 91 % of control.

Regarding `CCC1(O)C(=O)OCc2c1cc1n(c2=O)Cc2cc3cc(Cl)ccc3nc2-1` (stereo not drawn), the T/C reads like this: (endpoint: median survival time, dose: 5.0 mg/kg/injection, schedule: Q04DX002 (ip), vehicle: saline with Tween-80) 196 % of control; (endpoint: median survival time, dose: 10.0 mg/kg/injection, schedule: Q04DX002 (ip), vehicle: saline with Tween-80) 264 % of control and 280 % of control; (endpoint: median survival time, dose: 40.0 mg/kg/injection, schedule: Q04DX002 (ip), vehicle: saline with Tween-80) 89 % of control.

Regarding `O=C(Nc1cccc(F)c1)c1ccco1`, the T/C was 94 % of control (endpoint: mean survival time, dose: 100.0 mg/kg/injection, schedule: Q04DX003 (ip), vehicle: Klucel (hydroxypropylcellulose) (HPC)); 88 % of control (endpoint: mean survival time, dose: 200.0 mg/kg/injection, schedule: Q04DX003 (ip), vehicle: Klucel (hydroxypropylcellulose) (HPC)); 91 % of control (endpoint: mean survival time, dose: 400.0 mg/kg/injection, schedule: Q04DX003 (ip), vehicle: Klucel (hydroxypropylcellulose) (HPC)).

Consider `CCNC1=C(C)C(=O)C2=C(C1=O)C(COC(N)=O)C1(O)C3C(CN21)N3C` (stereo not drawn), for which the T/C runs as follows: (endpoint: mean survival time, dose: 1.5 mg/kg/injection, schedule: Q01DX001 (ip), vehicle: saline) 98 % of control; (endpoint: mean survival time, dose: 3.0 mg/kg/injection, schedule: Q01DX001 (ip), vehicle: saline) 95 % of control; (endpoint: mean survival time, dose: 6.0 mg/kg/injection, schedule: Q01DX001 (ip), vehicle: saline) 101 % of control; (endpoint: mean survival time, dose: 12.0 mg/kg/injection, schedule: Q01DX001 (ip), vehicle: saline) 93 % of control; (endpoint: mean survival time, dose: 24.0 mg/kg/injection, schedule: Q01DX001 (ip), vehicle: saline) 95 % of control; (endpoint: mean survival time, dose: 30.0 mg/kg/injection, schedule: Q01DX001 (ip), vehicle: water) 100 % of control. Further, the T/C (endpoint: mean survival time, dose: 60.0 mg/kg/injection, schedule: Q01DX001 (ip), vehicle: water) was 101 % of control.

As to `O=C1CN(CN2CCOCC2)C(=O)CN1CN1CCOCC1`, the T/C is 98 % of control and 101 % of control (endpoint: mean survival time, dose: 12.5 mg/kg/injection, schedule: Q01DX009 (ip), vehicle: saline); 96 % of control and 98 % of control (endpoint: mean survival time, dose: 25.0 mg/kg/injection, schedule: Q01DX009 (ip), vehicle: saline); 90 % of control and 102 % of control (endpoint: mean survival time, dose: 50.0 mg/kg/injection, schedule: Q01DX009 (ip), vehicle: saline); 102 % of control and 108 % of control under setting [7]; 106 % of control and 111 % of control under setting [8]; 93 % of control and 107 % of control under setting [9].

In the case of `COc1ccc(OC)c(NC(=S)NC(=O)c2cccc(Br)c2)c1`, the T/C under setting [1] was 93 % of control; the T/C under setting [2] is 95 % of control and 96 % of control; the T/C under setting [14] is 94 % of control and 100 % of control; the T/C under setting [10] is 95 % of control; the T/C under setting [3] was 88 % of control; the T/C under setting [4] is 95 % of control and 100 % of control. The T/C under setting [16] was 94 % of control and 100 % of control; the T/C under setting [11] was 91 % of control; the T/C under setting [5] is 89 % of control; the T/C under setting [6] is 92 % of control and 100 % of control; the T/C under setting [18] was 89 % of control and 100 % of control; the T/C under setting [12] is 95 % of control.

As for `CCCCCCC#CC(=O)OC`, the T/C is 101 % of control under setting [2]; 96 % of control under setting [10]; 101 % of control under setting [4]; 102 % of control under setting [11]; 97 % of control under setting [12].

For the compound `CNC1(C(=O)c2ccccc2)CC2CCC1C2` (stereo not drawn), the T/C is, setting by setting: under setting [13], 95 % of control; under setting [15], 96 % of control; under setting [17], 98 % of control.

Turning to `CC(=O)C(C)(O)C(C)(C)C` (stereo not drawn), the T/C runs as follows: (endpoint: mean survival time, dose: 100.0 mg/kg/injection, schedule: Q04DX003 (ip), vehicle: saline) 95 % of control; (endpoint: mean survival time, dose: 200.0 mg/kg/injection, schedule: Q04DX003 (ip), vehicle: saline) 93 % of control; (endpoint: mean survival time, dose: 400.0 mg/kg/injection, schedule: Q04DX003 (ip), vehicle: saline) 98 % of control.

On to `NC(=O)c1ccc(OC(F)(F)C(F)Cl)cc1OC(F)(F)C(F)Cl` (stereo not drawn), for which the T/C was 96 % of control (endpoint: mean survival time, dose: 25.0 mg/kg/injection, schedule: Q04DX002 (ip), vehicle: saline with Tween-80); 101 % of control (endpoint: mean survival time, dose: 50.0 mg/kg/injection, schedule: Q04DX002 (ip), vehicle: saline with Tween-80); 101 % of control under setting [14].

On to `CC(c1ccccc1)n1cncc1C(=O)O` (stereo not drawn), for which the T/C runs as follows: under setting [1], 106 % of control; under setting [3], 97 % of control; under setting [5], 95 % of control.

Consider `Nc1nc(Cl)ncc1C1OC(CO)C(O)C1O` (stereo not drawn), for which the T/C (endpoint: mean survival time, dose: 12.5 mg/kg/injection, schedule: Q01DX005 (ip), vehicle: water) is 91 % of control; the T/C (endpoint: mean survival time, dose: 25.0 mg/kg/injection, schedule: Q01DX005 (ip), vehicle: water) was 95 % of control; the T/C (endpoint: mean survival time, dose: 50.0 mg/kg/injection, schedule: Q01DX005 (ip), vehicle: water) is 91 % of control; the T/C (endpoint: mean survival time, dose: 100.0 mg/kg/injection, schedule: Q01DX005 (ip), vehicle: water) is 87 % of control; the T/C (endpoint: mean survival time, dose: 200.0 mg/kg/injection, schedule: Q01DX005 (ip), vehicle: water) is 98 % of control.
